Measurements as given in patent US20180133327A1, “Cell Penetrating Peptides and Complexes Comprising the Same” (Amal Therapeutics SA, priority 2015, published 2018).

How the values were obtained:
[1] = tested on: BMDC, mo-DCs, EL-4 or K562 cells; assay: In vitro transduction with fluorescein-conjugated ZEBRA CPP truncation constructs (FACS); type: cell-based, human and mouse; settings: for kinetic of transduction (entry into cells): fluorescein-conjugated constructs (ZxxOVACD8FAM), 30 minutes, 2 h or 4 h, acidic wash, FACS
Method: Transduction was assessed in cells with high phagocytosis capacity (dendritic cells of human and mice origin) and in cells with poor phagocytosis capacity (T cells from human, K562, or mouse, EL4, origin). Cells were incubated for 30 minutes, 2 h or 4 h with the fluorescein-conjugated constructs (Z13OVACD8FAM, Z14OVACD8FAM, Z15OVACD8FAM or Z18OVACD8FAM) then subjected to a 30s wash with an acidic buffer to remove membrane bound peptide before FACS analysis.
In order to more directly assess the transduction capacities of the selected ZEBRA CPP truncations Z13, Z14, Z15 and Z18 fluorescein-conjugated constructs (Z13OVACD8FAM, Z14OVACD8FAM, Z15OVACD8FAM and Z18OVACD8FAM) were synthesized. To this end, 5-(and-6)-carboxyfluorescein (mixed isomers; e.g. ThermoFisher Scientific catalogue no. C194) was added to each of Z13OVACD8 (SEQ ID NO: 29), Z14OVACD8 (SEQ ID NO: 30), Z15OVACD8 (SEQ ID NO: 31) and Z18OVACD8 (SEQ ID NO: 34).
These fluorescein-conjugated constructs (Z13OVACD8FAM, Z14OVACD8FAM, Z15OVACD8FAM and Z18OVACD8FAM) were tested for their ability to transduce different human and mouse cell types, in particular (i) cells with high phagocytosis capacity, namely dendritic cells (DCs) of human […], and (ii) cells with poor phagocytosis capacity, namely T cells from human, K562, or mouse, EL4, origin). The EL-4 thymoma cell line was maintained in complete RPMI 1640 medium. The K562 cell line was maintained in complete Iscove's modified Dulbecco's medium. BMDC, mo-DCs, EL-4 or K562 cells were incubated for 4 h at 37° C. with the fluorescein-conjugated constructs as described above (Z13OVACD8FAM, Z14OVACD8FAM, Z15OVACD8FAM or Z18OVACD8FAM). For removal of membrane bound peptide prior to cell transduction, a 30s wash with an acidic buffer (0.2 M Glycine, 0.15 M NaCl, pH 3) was performed. Cells were then analyzed by flow cytometry (FACS).

[2] = tested on: IFN-γ-producing OVA257-264-specific CD8 T cells; assay: Vaccination with ZEBRA CPP truncation constructs plus TLR agonist adjuvant, IFN-γ Elispot on spleen cells, CD8; type: in vivo, mice
Method: (§1) Mice were vaccinated three times (wk0, wk2 and wk9) by s.c. injection (right flank) of 10 nmoles of OVACD8CD4 (the cargo without Zebra CPP truncation), Z13OVACD8CD4, Z14OVACD8CD4, Z15OVACD8CD4, Z18OVACD8CD4 and i.m. injection of 50 μg of Hiltonol (right hind leg). One week after the last vaccination, Elispot assay was performed on spleen cells for detecting IFN-y-producing OVA257-264-specific CD8 T cells (A) and OVA323-339-specific CD4 T cells (B). *, p<0.05; **, p<0.01.
as §1, with “Z15OVACD8CD4 or” for “Z15OVACD8CD4,”, “20” for “i.m. injection of 50”, “Pam3CSK4.” for “Hiltonol (right hind leg).”, “IFN-γ-producing” for “IFN-y-producing”
Mice were vaccinated three times (wk0, wk2 and wk9) by s.c. injection (right flank) of 10 nmoles of Z13OVACD8CD4, Z15OVACD8CD4 or Z18OVACD8CD4 and 20 μg of MPLA. One week after the last vaccination, Elispot assay was performed on spleen cells for detecting IFN-γ-producing OVA257-264-specific CD8 T cells (A) and OVA323-339-specific CD4 T cells (B). *, p<0.05; **, p<0.01.
To extend the previous findings to in vivo vaccination, Z13, Z14, Z15 and Z18 conjugated to antigenic cargo containing both CD8 and CD4 T cell epitopes from OVA (as described in Example 4 for Z13, Z15 and Z18) was synthesized. For Z14 the construct was as follows:
Firstly, those constructs were tested with Hiltonol adjuvant (a TLR3 agonist). […] The number of peptide-specific IFN-γ-producing cells was calculated by subtracting the number of IFN-γ-secreting cells cultured without peptide to that obtained with cells cultured with peptide. […]

| Sequence | kinetic of transduction (entry into cells) [1] | transduction efficacy, all cell types ([1]; fluorescein-conjugated constructs, compared to other ZEBRA CPP truncations) | CD8 immune response, combined with Pam3CSK4 ([2]; 10 nmol ZxxOVACD8CD4 s.c. wk0, wk2, wk9 and 20 μg Pam3CSK4 (TLR2 agonist)) | CD8 T cell immune responses, for any adjuvant ([2]; 10 nmol ZxxOVACD8CD4 s.c. wk0, wk2, wk9, Hiltonol, Pam3CSK4 or MPLA) | CD8 immune response, combined with MPLA ([2]; 10 nmol ZxxOVACD8CD4 s.c. wk0, wk2, wk9 and 20 μg MPLA (TLR4 agonist)) |
| --- | --- | --- | --- | --- | --- |
| REVAAAKSSENDRLRLLLK [Z18] | slower | lower transduction efficacy | highest CD8 and CD4 immune response | – | – |
| KRYKNRVASRKSRAKFK (CPP Z15) [ZEBRA CPP truncation] | slower | – | – | low CD8 T cell immune responses | – |
| KRYKNRVASRKSRAKFKQLLQHYREVAAAK [Z14] | rapidly entering in the majority of the cells | – | – | – | – |
| KRYKNRVASRKSRAKFKQLLQHYREVAAAKSSENDRLRLLLK [Z13] | rapidly entering in the majority of the cells | – | – | – | most efficacious |
